{"source": "patent EP2878306B1", "about": "“MODIFIED PEPTIDE, CB RECEPTOR LIGAND, KIT, IN VITRO PROCESS FOR […] RECEPTOR BONDS, USES, PHARMACEUTICAL COMPOSITION FOR […] RECEPTOR ACTIVITY” (Proteimax Biotecnologia Ltda, priority 2012, dated 2014)", "key": {"[1]": {"target": "T1, CB1 receptor (Homo sapiens, UniProt P21554)", "T1 construct": "ligand for CB1 receptor through ELISA with striate membranes (5µg/pool) treated with 1µM of each drug; from tissue; host or cells: striatal ('striate') membranes", "T1 sequence (P21554 whole entry)": "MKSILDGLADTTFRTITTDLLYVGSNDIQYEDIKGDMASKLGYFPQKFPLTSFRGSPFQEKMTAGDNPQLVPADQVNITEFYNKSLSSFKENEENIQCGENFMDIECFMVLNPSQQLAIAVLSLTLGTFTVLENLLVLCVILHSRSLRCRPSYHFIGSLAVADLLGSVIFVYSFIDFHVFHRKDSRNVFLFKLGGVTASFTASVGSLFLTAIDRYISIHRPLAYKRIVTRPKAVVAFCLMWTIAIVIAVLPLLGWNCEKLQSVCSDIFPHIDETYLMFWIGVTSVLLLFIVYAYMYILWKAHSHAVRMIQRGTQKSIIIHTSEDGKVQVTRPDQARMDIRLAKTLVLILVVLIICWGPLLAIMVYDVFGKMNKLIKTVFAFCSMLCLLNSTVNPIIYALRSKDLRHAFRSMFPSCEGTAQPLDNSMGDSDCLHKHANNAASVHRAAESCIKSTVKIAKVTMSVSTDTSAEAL", "assay": "ELISA with striate membranes and anti-CB1 antibody, receptor activating percentage regarding the control", "format": "biochemical", "details": "for activity in CB1 receptors: striate membranes 5µg/pool, 1µM of each drug, 2 hours, ambient temperature, compared to control and SeqID:1", "experimental": "(§1) The receptor activating percentage was calculated regarding the control, non-treated membrane (100%). […] Significant differences are indicated and p<0.05."}, "[2]": {"tested_on": "animals supplemented with 20% saccharose", "assay": "Determination of Triglycerides in animals supplemented with 20% saccharose", "format": "in vivo, Wistar rats", "details": "100 µg/Kg; after 30 days-treatment", "experimental": "(§2) Wistar rats fed with standard regimen supplemented with 20% saccharose were used in the drinking water during 60 days before and during the 30 days-treatment with SALINE (negative control), Rimonabant (positive control), Peptide 19 (Pep 19) in the concentration of 50µg/Kg and Peptide 19 (Pep 19) in the concentration of 100 µg/Kg."}, "[3]": {"tested_on": "Thin wistar rats", "assay": "Test in Inguinal adipose tissue", "format": "in vivo", "details": "100 ug/Kg, 3 days orally; in comparison with Rimonabant and/or saline; scale g/100g", "experimental": "The measure of the adipose tissue was performed after finishing the treatment. The results are expressed by the inguinal adipose tissue weight measured at the treatment end (scale of g/100g). Rats administered with vehicle (saline) were subject to the same protocol (control)."}, "[4]": {"tested_on": "Thin wistar rats", "assay": "Serum leptin concentration determination", "format": "in vivo", "details": "100 ug/Kg, 3 days orally; in comparison with saline", "experimental": "(§3) Thin wistar rats were treated with a Rimonabant dosage (100 ug/Kg) or peptide 19 (Pep 19 100 ug/Kg) during 3 days orally. The measure of the serum leptin concentration was performed after finishing the treatment. The results are expressed ng/mL. Rats administered with vehicle (saline) were subject to the same protocol (control)."}, "[5]": {"tested_on": "animals supplemented with 20% saccharose", "assay": "Determination of the weight in animals supplemented with 20% saccharose", "format": "in vivo, Rats wistar", "details": "100 µg/Kg; 3th to 5th week of treatment", "experimental": "as §2, with “Rats wistar” for “Wistar rats”"}, "[6]": {"tested_on": "Thin wistar rats", "assay": "Test in Gonadal adipose tissue", "format": "in vivo", "details": "100 ug/Kg, 3 days orally; in comparison with Rimonabant and/or saline; scale g/100g", "experimental": "The measure of the adipose tissue was performed after finishing the treatment. The results are expressed by the gonadal adipose tissue weight measured at the treatment end (scale of g/100g). Rats administered with vehicle (saline) were subject to the same protocol (control)."}, "[7]": {"tested_on": "animals supplemented with 20% saccharose", "assay": "Determination of the adiposity ratio in animals supplemented with 20% saccharose (Example 26)", "format": "in vivo, Wistar rats", "details": "600µg/Kg; 30 days-treatment; in comparison to further groups", "experimental": "(§4) Wistar rats fed with standard regimen supplemented with 20% saccharose were used in the drinking water during 60 days before and during the 30 days-treatment with SALINE (negative control), Rimonabant (positive control), Peptide 19 (Pep 19) in the concentration of 100µg/Kg, 300µg/Kg and 600µg/Kg."}, "[8]": {"tested_on": "animals supplemented with 20% saccharose", "assay": "Determination of the amount of mesenteric adipose tissue in animals supplemented with 20% saccharose", "format": "in vivo, Wistar rats", "details": "after the 30th day of treatment, in comparison to further groups", "experimental": "as §2"}, "[9]": {"tested_on": "animals supplemented with 20% saccharose", "assay": "Determination of the cholesterol in animals supplemented with 20% saccharose", "format": "in vivo, Wistar rats", "details": "after 30 days-treatment", "experimental": "as §2"}, "[10]": {"tested_on": "animals supplemented with 20% saccharose", "assay": "Glucose in animals supplemented with 20% saccharose", "format": "in vivo, Winstar rats", "details": "100 µg/Kg; 15th and 30th days of treatment", "experimental": "as §2, with “Winstar” for “Wistar”"}, "[11]": {"tested_on": "Thin wistar rats", "assay": "Test in Brown adipose tissue", "format": "in vivo", "details": "100 ug/Kg, 3 days orally; in comparison with Rimonabant and/or saline; scale g/100g", "experimental": "The measure of the adipose tissue was performed after finishing the treatment. The results are expressed by the brown adipose tissue weight measured at the treatment end (scale of g/100g). Rats administered with vehicle (saline) were subject to the same protocol (control)."}, "[12]": {"tested_on": "Thin wistar rats", "assay": "Adiposity ratio determination", "format": "in vivo", "details": "100 ug/Kg, 3 days orally; in comparison with Rimonabant and/or saline", "experimental": "as §3, with “adiposity ratio” for “serum leptin concentration”, “treatment using the formula (%), (I=Σ fat deposits/body weight x 100).” for “treatment.”, “by the animal weight measured at the treatment end (scale of g/100g).” for “ng/mL.”"}, "[13]": {"tested_on": "animals supplemented with 20% saccharose", "assay": "Determination of the amount of gonadal adipose tissue in animals supplemented with 20% saccharose", "format": "in vivo, Wistar rats", "details": "100µg/Kg; after the 30th day of treatment; in comparison to further groups", "experimental": "as §2"}, "[14]": {"tested_on": "Thin wistar rats", "assay": "Test in Retroperitoneal adipose tissue", "format": "in vivo", "details": "100 ug/Kg, 3 days orally; in comparison with Rimonabant and/or saline; scale g/100g", "experimental": "The measure of the adipose tissue was performed after finishing the treatment. The results are expressed by the retroperitoneal adipose tissue weight measured for treatment purpose (scale of g/100g). Rats administered with vehicle (saline) were subject to the same protocol (control)."}, "[15]": {"tested_on": "animals supplemented with 20% saccharose", "assay": "Determination of the insulinemia in animals supplemented with 20% saccharose", "format": "in vivo, Wistar rats", "details": "100 µg/Kg; after 30 days-treatment", "experimental": "as §2"}, "[16]": {"tested_on": "Rats", "assay": "Depression model (forced swim)", "format": "in vivo", "details": "stated as contrary to Rimonabant", "experimental": "The forced swim test was performed based on the previous tests ([Harkin et al., 2004], [Petit-Demouliere et al., 2005] and [Treit and Menard, 1998])."}, "[17]": {"tested_on": "animals supplemented with 20% saccharose", "assay": "Determination of the adiposity ratio in animals supplemented with 20% saccharose (Example 25)", "format": "in vivo, Wistar rats", "details": "100µg/Kg; 30 days-treatment; in comparison to further groups", "experimental": "as §2"}, "[18]": {"tested_on": "non-obese wistar rats", "assay": "Treatment acute model, 3 days orally (Figures 4 to 9)", "format": "in vivo", "source_text": "Furthermore, in a treatment acute model (3 days of treatment orally in non-obese wistar rats) it was verified the brown adipose tissue activation, the retroperitoneal, inguinal and brown adipose tissues reduction, as well the adiposity ratio (Figures 4 to 9), effects not observed with Rimonabant."}, "[19]": {"tested_on": "Thin wistar rats", "assay": "Test in Mesenteric adipose tissue", "format": "in vivo", "details": "100 ug/Kg, 3 days orally; in comparison with Rimonabant and/or saline; scale g/100g", "experimental": "The measure of the adipose tissue was performed after finishing the treatment. The results are expressed by the mesenteric adipose tissue weight measured at the treatment end (scale of g/100g). Rats administered with vehicle (saline) were subject to the same protocol (control)."}, "[20]": {"tested_on": "animals supplemented with 20% saccharose", "assay": "Determination of the blood pressure in animals supplemented with 20% saccharose", "format": "in vivo, Wistar rats", "details": "600µg/Kg; 30 days-treatment; in comparison to further groups", "experimental": "as §4"}, "[21]": {"tested_on": "animals supplemented with 20% saccharose", "assay": "Determination of the amount of inguinal adipose tissue in animals supplemented with 20% saccharose", "format": "in vivo, Wistar rats", "details": "100µg/Kg; after the 30th day of treatment; in comparison to further groups", "experimental": "as §2"}, "[22]": {"tested_on": "CB2 receptor", "assay": "ELISA with striate membranes for CB2 receptor, receptor activating percentage regarding the control", "format": "biochemical", "experimental": "as §1"}}, "note": "No end group written: not given here.", "data": [{"substance": "Cyclic peptide -Asp-Ile-Ile-Ala-Asp-Asp-Glu-Pro-Leu-Thr- [Example 6]", "values": [{"measurement": "Result (change in the activity of the cyclic form)", "setting": "[1]; Table 1 summary, in vitro, receptor not stated", "value": "Change in the activity was not detected"}]}, {"substance": "DIIADDAPLT [SeqID:3]", "values": [{"measurement": "Result (activity regarding the CB1)", "setting": "[1]; Table 1 summary", "value": "Reduces the activity regarding the CB1 (comparatively the SeqID:1)."}, {"measurement": "activity in CB1 receptors", "setting": "[1]", "value": "smaller activity in CB1 receptors"}]}, {"substance": "DIIADDE [SeqID:4]", "values": [{"measurement": "Result (activity regarding the CB1)", "setting": "[1]; Table 1 summary", "value": "Increases the activity regarding the CB1"}, {"measurement": "activity in CB1 receptors", "setting": "[1]", "value": "improved inverse agonist activity in CB1 receptors"}]}, {"substance": "DIIADDEALT [SeqID:5]", "values": [{"measurement": "Result (high dosages)", "setting": "[1]; Table 1 summary, high dosages", "value": "became agonist"}, {"measurement": "Result (low dosages)", "setting": "[1]; Table 1 summary, low dosages", "value": "the inverse agonist activity was not detected"}, {"measurement": "activity in the endocannabinoid receptors, high dosages", "setting": "[1]; high dosages, different dosages of each drug, 2 hours (Figure 14, CB1 receptor)", "value": "agonist activity"}, {"measurement": "activity in the endocannabinoid receptors, low dosages", "setting": "[1]; low dosages, different dosages of each drug, 2 hours (Figure 14, CB1 receptor)", "value": "activity inverse agonist"}]}, {"substance": "DIIADDEPLT [SeqID:1]", "values": [{"measurement": "percentages of triglycerides (% from SALINE)", "setting": "[2]", "value": "lower percentages of triglycerides"}, {"measurement": "inguinal adipose tissue mass", "setting": "[3]", "value": "smaller"}, {"measurement": "serum leptin concentration", "setting": "[4]", "value": "smaller"}, {"measurement": "weight percentages (% from the animals weight treated with SALINE)", "setting": "[5]", "value": "lower weight percentages"}, {"measurement": "activity in CB1 receptors", "setting": "[1]", "value": "inverse agonist of the CB1 receptor"}, {"measurement": "gonadal adipose tissue mass", "setting": "[6]", "value": "no difference"}, {"measurement": "adiposity ratio (adipose tissue total mass corrected by the body weight)", "setting": "[7]", "value": "lower amounts of adipose tissue"}, {"measurement": "mesenteric adipose tissue, corrected by the body weight", "setting": "[8]; 50 µg/Kg", "value": "lower percentages of mesenteric adipose tissue"}, {"measurement": "mesenteric adipose tissue, corrected by the body weight", "setting": "[8]; 100µg/Kg", "value": "lower percentages of mesenteric adipose tissue"}, {"measurement": "cholesterol percentages (% from SALINE)", "setting": "[9]; 50µg/Kg", "value": "lower cholesterol percentages"}, {"measurement": "cholesterol percentages (% from SALINE)", "setting": "[9]; 100 µg/Kg", "value": "lower cholesterol percentages"}, {"measurement": "glycaemia", "setting": "[10]", "value": "lower glycaemia"}, {"measurement": "brown adipose tissue mass", "setting": "[11]", "value": "smaller"}, {"measurement": "adiposity ratio", "setting": "[12]", "value": "smaller"}, {"measurement": "gonadal adipose tissue, corrected by the body weight", "setting": "[13]", "value": "lower percentages of gonadal adipose tissue"}, {"measurement": "retroperitoneal adipose tissue mass", "setting": "[14]", "value": "smaller"}, {"measurement": "insulinemia", "setting": "[15]", "value": "lower average of insulinemia"}, {"measurement": "depression (forced swim, immobility time)", "setting": "[16]", "value": "does not cause depression"}, {"measurement": "adiposity ratio (adipose tissue total mass corrected by the body weight)", "setting": "[17]", "value": "biggest amounts of adipose tissue"}, {"measurement": "adiposity ratio", "setting": "[18]; 3 days of treatment orally", "value": "reduction"}, {"measurement": "brown adipose tissue", "setting": "[18]; 3 days of treatment orally", "value": "reduction"}, {"measurement": "brown adipose tissue activation", "setting": "[18]; 3 days of treatment orally", "value": "activation"}, {"measurement": "inguinal adipose tissue", "setting": "[18]; 3 days of treatment orally", "value": "reduction"}, {"measurement": "retroperitoneal adipose tissue", "setting": "[18]; 3 days of treatment orally", "value": "reduction"}, {"measurement": "activity when administered orally", "setting": "[18]; oral administration", "value": "has activity even when administered orally"}, {"measurement": "mesenteric adipose tissue mass", "setting": "[19]", "value": "no difference"}, {"measurement": "blood pressure", "setting": "[20]", "value": "lower blood pressure"}, {"measurement": "inguinal adipose tissue, corrected by the body weight", "setting": "[21]", "value": "biggest amounts of inguinal adipose tissue"}]}, {"substance": "DILADDEPLT [SeqID:2]", "values": [{"measurement": "Result (activity in CB2)", "setting": "[22]; Table 1 summary", "value": "raises a strong inverse agonist activity in CB2"}, {"measurement": "activity in CB2 receptors", "setting": "[22]; striate membranes 5µg/pool, 1 µM of each drug, 2 hours, ambient temperature", "value": "inverse agonist of the CB2 receptor"}, {"measurement": "Result (activity regarding the CB1)", "setting": "[1]; Table 1 summary", "value": "Reduces the activity regarding the CB1"}]}]}
